From patent publication US20230091848A1, “DISEASE DETECTION AND TREATMENT BASED ON PHENYLACETYL GLUTAMINE LEVELS” (The Cleveland Clinic Foundation, priority 2020, published 2023)

Columns and labels:
[1] = system: human platelet rich plasma (PRP); test: Platelet aggregometry in platelet rich plasma; assay type: cell-based; details: submaximal ADP
Procedure: ADP (up to 4 μM), TRAP6 (up to 10 μM) and collagen (up to 1.0 μg/mL) were used as indicated to initiate aggregation with constant stirring (600 rpm).

[2] = system: FeCl3-induced carotid artery injury model; test: Carotid artery FeCl3 injury thrombosis assay; assay type: in vivo, mice; details: i.p. injection 50 mg/kg; vs phenylalanine or saline
Procedure: Briefly, rhodamine 6G (100 μL; 0.5 mg/mL) was injected directly into the right jugular vein to label platelets. The left carotid artery was exposed and injured by placing a FeCl3-soaked filter paper for 1 minute. […] Time to cessation of blood flow through clot formation for all studies was determined by visual inspection by two different investigators. End points were set as cessation of blood flow for 30 seconds to 30 minutes.

washed human platelets = test: Intracellular Ca2+ in Fura 2 loaded washed platelets; assay type: cell-based; details: sub-maximal (0.02 U) thrombin
Procedure: To prepare washed platelets for intracellular Ca^2+ measurements, 100 nM prostaglandin E1 (PGE-1) was added to PRP and the PRP was then centrifuged at 500×g for 20 min at 22° C. […] For ratiometric fluorescence measurements, washed platelets were incubated with Fura 2-AM (1 μM) at 22° C. for 30 min. Excess Fura 2-AM was removed by centrifugation at 500×g for 30 min.

O=C(O)CNC(=O)Cc1ccccc1 [PAGly, phenylacetylglycine]
ADP-stimulated platelet aggregation response [1]: augmented stimulus (ADP) dependent platelet aggregation response | platelet thrombus formation within the injured carotid artery [2]: induced heightened platelet thrombus formation within the injured carotid artery | time to cessation of flow (occlusion time) [2]: reduced the time to cessation of flow following injury | thrombin-evoked augmentation of [Ca2+]i (washed human platelets): provoked further rise in [Ca^2+]i in response to sub-maximal thrombin exposure
